The values that follow come from US10829778B2, “Plants having increased tolerance to herbicides” (BASF SE, priority 2013, dated 2020).

The subject of one assay is Avena HPPD. Description: HPPD activity assay, wildtype enzyme. The assay is classed as biochemical, Avena sativa. The following applies: Table 12, normalized to Arabidopsis HPPD. The procedure:
(§1) HPPD produces homogentisic acid and CO2 from 4-hydroxyphenylpyruvate (4-HPP) and O2. The activity assay for HPPD is based on the analysis of homogentisic acid by reversed phase HPLC.
(§2) The assay mixture can contain 150 mM potassium phosphate buffer pH 7.0, 50 mM L-ascorbic acid, 100 μM Catalase (Sigma-Aldrich), 1 μM FeSO4 and 0.2 units of purified HPPD enzyme in a total volume of 505 μl. 1 unit is defined as the amount of enzyme that is required to produce 1 nmol of HGA per minute at 20° C.
(§3) After a preincubation of 30 min the reaction is started by adding 4-HPP to a final concentration of 0.05 mM. The reaction is allowed to proceed for 45 min at room temperature. The reaction is stopped by the addition of 50 μl of 4.5 M phosphoric acid. The sample is filtered using a […] pore size PVDF filtration device.
(§4) 5 μl of the cleared sample is analyzed on an UPLC HSS T3 column (particle size 1.8 μm, dimensions 2.1×50 mm; Waters) by isocratic elution using 90% 20 mM NaH2PO4 pH 2.2, 10% methanol (v/v).
(§5) HGA is detected electrochemically at 750 mV (mode: DC; polarity: positive) and quantified by integrating peak areas (Empower software; Waters).
Inhibitors are dissolved in DMSO (dimethylsulfoxide) to a concentration of 0.5 mM. From this stock solution serial five-fold dilutions are prepared in DMSO, which are used in the assay. […] IC50 values are calculated using non-linear regression. […]

In assay [1] the test system is transgenic Arabidopsis plants expressing AtHPPD M335H, P336A, E363Q. Description: Greenhouse herbicide spray test, transgenic Arabidopsis plants (T2). The conditions noted are these: two weeks after treatment. In kind it is in vivo, Arabidopsis thaliana. From the text:
(§6) For post emergence treatment, the test plants are first grown to a height of 3 to 15 cm, depending on the plant habit, and only then treated with the herbicides. For this purpose, the test plants are either sown directly and grown in the same containers, or they are first grown separately and transplanted into the test containers a few days prior to treatment.
(§7) Additionally, T1 and T2 transgenic Arabidopsis plants can be tested for improved tolerance to N-heterocyclyl-arylcarboxamides in a greenhouse studies. Herbicide injury scoring is done 2-3 weeks after treatment and is rated on a scale of 0 to 100%, 0% being no injury and 100% being complete death.

In assay [2] the test system is transgenic Arabidopsis plants expressing AtHPPD M335Y, P336A, E363Q. The description is as above. In kind it is in vivo, Arabidopsis thaliana. The following applies: two weeks after treatment.
Source text: as §6, §7

In assay [3] the test system is transgenic Arabidopsis plants expressing HvHPPD L320H, P321A. Described as above. In kind it is in vivo, Arabidopsis thaliana. The conditions noted are these: for Injury evaluation: P321A, two weeks after treatment.
Source text: as §6, §7

Assay [4] relates to transgenic Arabidopsis plants expressing HvHPPD L320H. The assay is described as above. The following applies: for Injury evaluation: HvHPPD L320H, two weeks after treatment. In kind it is in vivo, Arabidopsis thaliana.
Source text: as §6, §7

Another assay has as its target T1, HvHPPD L320Q (SEQ ID: 2) (Hordeum vulgare, UniProt O48604, A164G/L320Q/R146V/R147D/R148G).
T1 construct: His tag (N); made in house; host or cells: E. coli BL21 (DE3)
The assay can be described thus: HPPD activity assay, mutant enzyme. The following applies: Table 16, normalized to Hordeum wild-type. In kind it is biochemical. The method, then:
as §1, §2, §3, §4, §5
(§8) Inhibitors are dissolved in DMSO (dimethylsulfoxide) to a concentration of 0.5 mM. From this stock solution serial five-fold dilutions are prepared in DMSO, which are used in the assay. The respective inhibitor solution accounts for 1% of the assay volume. […] Activities are normalized by setting the uninhibited enzyme activity to 100%. IC50 values are calculated using non-linear regression.
(§9) Purified, mutant HPPD enzymes are obtained by the methods described above. Dose response and kinetic measurements are carried out using the described HPPD activity assay. Apparent michaelis constants (Km) and maximal reaction velocities (Vmax) are calculated by non-linear regression with the software GraphPad Prism 5 (GraphPad Software, La Jolla, USA) using a substrate inhibition model. […] Weighted means (by standard error) of Km and IC50 values are calculated from at least three independent experiments.
(§10) Field performance of the optimized HPPD enzyme, which is used as a herbicide tolerance trait may depend not only on its lack of sensitivity towards HPPD inhibiting herbicides but also on its activity. To assess the potential performance of a herbicide tolerance trait a tolerance index (TI) is calculated using the following formula: […]
(§11) Easy comparison and ranking of each trait is enabled by normalizing tolerance indexes on Arabidopsis or Hordeum wild-type HPPD.

Assay [5] addresses T2, HvHPPD L353M, P321R, L320Q (SEQ ID: 2) (Hordeum vulgare, UniProt O48604, L320Q/L353M/P321R).
T2 construct: His tag (N); made in house; host or cells: E. coli BL21 (DE3)
Description: HPPD activity assay, mutant enzyme. In kind it is biochemical. The conditions noted are these: Table 16, normalized to Hordeum wild-type. The method, then: as §1, §2, §3, §4, §5, §8, §9, §10, §11

For assay [6], the system named is Rhodococcus HPPD (Seq ID 44). The assay can be described thus: HPPD activity assay, wildtype enzyme. The following applies: Table 12, normalized to Arabidopsis HPPD; Rhodococcus (Seq ID 44). In kind it is biochemical. The procedure: as §1, §2, §3, §4, §5
(§12) Inhibitors are dissolved in DMSO (dimethylsulfoxide) to a concentration of 0.5 mM. From this stock solution serial five-fold dilutions are prepared in DMSO, which are used in the assay. The respective inhibitor solution accounts for 1% of the assay volume. Thus, final inhibitor concentrations range from […], respectively. Activities are normalized by setting the uninhibited enzyme activity to 100%. IC50 values are calculated using non-linear regression.
(§13) Using methods which are described in the above examples or well known in the art, purified, recombinant wildtype HPPD enzymes are characterized with respect to their kinetic properties and sensitivity towards HPPD inhibiting herbicides. Apparent michaelis constants (Km) and maximal reaction velocities (Vmax) are calculated by non-linear regression with the software GraphPad Prism 5 (GraphPad Software, La Jolla, USA) using a substrate inhibition model. Apparent kcat values are calculated from Vmax assuming 100% purity of the enzyme preparation. Weighted means (by standard error) of Km and IC50 values are calculated from at least three independent experiments. The Cheng-Prusoff equation for competitive inhibition (Cheng, Y. C.; Prusoff, W. H. Biochem Pharmacol 1973, 22, 3099-3108) is used to calculate dissociation constants (Ki).
(§14) Field performance of the HPPD enzyme, which is used as a herbicide tolerance trait may depend not only on its lack of sensitivity towards HPPD inhibiting herbicides but also on its activity. To assess the potential performance of a herbicide tolerance trait a tolerance index (TI) is calculated using the following formula: […]

Another assay has as its system Kordia HPPD. Description: HPPD activity assay, wildtype enzyme. In kind it is biochemical. The following applies: Table 12, normalized to Arabidopsis HPPD. The method, then:
as §1, §2, §3, §4, §5, §12, §13, §14

The subject of a further assay is Lolium HPPD. The assay can be described thus: HPPD activity assay, wildtype enzyme. In kind it is biochemical. The following applies: Table 12, normalized to Arabidopsis HPPD. The procedure: as §1, §2, §3, §4, §5, §12, §13, §14

T2 sequence (O48604 whole entry R146V/R147D/R148G/A164G/L320Q/P321R/L353M): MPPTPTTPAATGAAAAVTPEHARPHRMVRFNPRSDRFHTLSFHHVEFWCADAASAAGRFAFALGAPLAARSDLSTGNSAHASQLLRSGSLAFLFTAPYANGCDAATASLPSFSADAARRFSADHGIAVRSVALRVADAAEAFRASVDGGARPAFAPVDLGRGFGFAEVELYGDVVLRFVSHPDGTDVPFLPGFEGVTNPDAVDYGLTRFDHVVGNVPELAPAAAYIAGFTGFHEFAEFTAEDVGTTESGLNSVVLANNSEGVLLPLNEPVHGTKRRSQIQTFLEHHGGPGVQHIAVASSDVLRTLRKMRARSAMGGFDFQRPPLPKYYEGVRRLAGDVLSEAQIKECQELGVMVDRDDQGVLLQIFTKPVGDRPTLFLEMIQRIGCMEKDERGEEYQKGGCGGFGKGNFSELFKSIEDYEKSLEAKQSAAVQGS
T1 sequence (O48604 whole entry R146V/R147D/R148G/A164G/L320Q): as the sequence (O48604 whole entry R146V/R147D/R148G/A164G/L320Q/P321R/L353M) above, with R321P, M353L counted along it

As for `Cc1nonc1NC(=O)c1ccc(S(C)(=O)=O)c(S(C)(=O)=O)c1C` [Inhibitor 1, 2-methyl-N-(4-methyl-1,2,5-oxadiazol-3-yl)-3,4-bis(methylsulfonyl)benzamide], the “Normalized tolerance index TI Inhibitor 1” value with Avena HPPD turned out to be 1.3; on HvHPPD L320Q (SEQ ID: 2) it was 1.1; in assay [5] it was 12.6; in [6], 183.5; in the assay with Kordia HPPD, 3.5; in the assay with Lolium HPPD, 1.7. In addition, the Injury evaluation in assay [1] (1.56 g/ha) was determined as 3%; in assay [1] (3.125 g/ha) it was 13%; in assay [1] (6.25 g/ha), 42%; in assay [1] (12.5 g/ha), 42%; in [2] (1.56 g/ha) it was 12%; in assay [2] (3.125 g/ha) it was 23%. For the same compound, the Injury evaluation in assay [2] (6.25 g/ha) was 58%; in assay [2] (12.5 g/ha), 52%; in [3] (1.56 g/ha), 0%; in [3] (3.125 g/ha), 0%; in assay [3] (6.25 g/ha), 2%; in assay [3] (12.5 g/ha), 2.5%. Further, the Injury evaluation was 0% in [4] (1.56 g/ha), 5% in assay [4] (3.125 g/ha), 20% in [4] (6.25 g/ha) and 27% in assay [4] (12.5 g/ha). Also, the “increased tolerance versus wild-type plants” value in assay [3] (P321A plants, highest dose applied) was 40 fold; in [4] (HvHPPD L320H plants, dose of 3.125 g/ha), approximately 20 fold.
